Assay results reported in PMC11269185, “Glutamate acts on acid-sensing ion channels to worsen ischaemic brain injury” (Nature, 2024).
Each block holds one compound with its values, some of them ahead of it.

Key:
Format in all cases: binding
[1] = target: T1, ASIC1a (acid-sensing ion channel 1a) (Homo sapiens, UniProt P78348); assay: microscale thermophoresis in cell lysate, pH […]; patch clamp (IC50 […] against glutamate potentiation); design: gene ASIC1; eGFP-tagged wild-type ASIC1a in HEK293T lysate
T1 sequence (P78348 1-528): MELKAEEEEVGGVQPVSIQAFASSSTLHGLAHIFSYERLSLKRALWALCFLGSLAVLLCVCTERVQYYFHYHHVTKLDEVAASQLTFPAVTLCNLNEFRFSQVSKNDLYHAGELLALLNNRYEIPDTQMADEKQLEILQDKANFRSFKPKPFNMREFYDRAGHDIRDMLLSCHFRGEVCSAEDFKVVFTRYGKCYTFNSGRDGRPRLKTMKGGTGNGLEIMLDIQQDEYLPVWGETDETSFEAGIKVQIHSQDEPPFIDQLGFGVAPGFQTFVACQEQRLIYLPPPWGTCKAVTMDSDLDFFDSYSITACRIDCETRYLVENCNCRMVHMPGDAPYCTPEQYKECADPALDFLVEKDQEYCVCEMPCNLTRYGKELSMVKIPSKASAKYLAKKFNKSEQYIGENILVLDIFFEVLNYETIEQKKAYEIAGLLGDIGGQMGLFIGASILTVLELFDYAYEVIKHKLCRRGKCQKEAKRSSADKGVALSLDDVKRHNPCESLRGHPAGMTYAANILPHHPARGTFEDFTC

[2] = target: T1, ASIC1a (acid-sensing ion channel 1a); assay: microscale thermophoresis in cell lysate, pH […] ([…] at pH […]); patch clamp; design: gene ASIC1; GFP-tagged hASIC1a in lysates of transfected HEK293T cells
[3] = target: T1, ASIC1a (acid-sensing ion channel 1a); assay: microscale thermophoresis in cell lysate, pH […]; patch clamp; design: gene ASIC1; GFP-tagged ASIC1a in HEK293T lysate

- Kd [1]: 1100 ± 200 nM
Compound: O=C(O)[C@@H]1C[C@H](CP(=O)(O)O)CCN1 [CGS19755]

Compound: N[C@@H](CCC(=O)O)C(=O)O [glutamate]
- Kd [2]: 113000 nM

- Kd [3]: 1900 ± 400 nM
Compound: O=C(O)C1CN(C(c2ccccc2)P(=O)(O)O)CCN1 (stereo not drawn) [LK-2]
